Read-outs that look alike come from different tables or passages of the source.
Experiments:
[1] = target: His tagged PTPN2 (TC45) protein (Homo sapiens (Human), UniProt P17706); test: PTPN2 Mobility Shift Assay (MSA); format: biochemical; conditions: for Dihydrobenzofuran or Indoline x-fold>potency biochemical: x-fold versus corresponding chromane comparator, PTPN2 MSA
Protocol: Example III-1: Mobility Shift Assay (MSA) Used to Determine Potency of PTPN2 Inhibitors
Compound activity was determined using in house His tagged PTPN2 (TC45) protein (SEQ ID NO: 1) in an in vitro enzymatic reaction. The enzymatic assay used to determine activity was a mobility shift assay using a LabChip EZ Reader by Caliper Life Sciences. The enzymatic reaction was carried out in assay buffer (50 mM HEPES pH 7.5, 1 mM EGTA, 10 mM EDTA, 0.01% Tween® 20, and 2 mM DTT). The compounds were dispensed on a white 384 well ProxiPlate™ (PerkinElmer Catalog #6008289) plate using the Labcyte Echo at varying concentrations (12 point, 1:3 dilution). The enzyme (at 0.5 nM) was incubated with compound for 10 minutes at room temperature. Thereafter, the substrate (phosphorylated insulin receptor probe sequence: ((OG488)-(NH—CH2—CH2—O—CH2—CH2—O—CH2—CO)-T-R-D-I—(PY)-E-T-D-Y—Y—R—K—K—NH2) (SEQ ID NO: 2) was added at 2 μM to the plates and incubated for another 10 minutes at room temperature. Finally, a quench solution (water and 4-bromo-3-(2-oxo-2-propoxyethoxy)-5-(3-{[1-(phenylmethanesulfonyl)piperidin-4-yl]amino}phenyl)thiophene-2-carboxylic acid) was added to the plates, which were then run on the EZ Reader (excitation 488 nm, emission 530 nm) to measure % conversion (the amount of phosphorylated substrate which was de-phosphorylated by PTPN2). […] The % inhibition was then used to calculate the IC50 values.

[2] = target: His tagged full-length PTPN1 protein (Homo sapiens (Human), UniProt P18031); test: PTPN1 Mobility Shift Assay (MSA); format: biochemical; conditions: enzyme 0.5 nM, substrate 2 μM
Sequence of His tagged full-length PTPN1 protein (P18031 whole entry): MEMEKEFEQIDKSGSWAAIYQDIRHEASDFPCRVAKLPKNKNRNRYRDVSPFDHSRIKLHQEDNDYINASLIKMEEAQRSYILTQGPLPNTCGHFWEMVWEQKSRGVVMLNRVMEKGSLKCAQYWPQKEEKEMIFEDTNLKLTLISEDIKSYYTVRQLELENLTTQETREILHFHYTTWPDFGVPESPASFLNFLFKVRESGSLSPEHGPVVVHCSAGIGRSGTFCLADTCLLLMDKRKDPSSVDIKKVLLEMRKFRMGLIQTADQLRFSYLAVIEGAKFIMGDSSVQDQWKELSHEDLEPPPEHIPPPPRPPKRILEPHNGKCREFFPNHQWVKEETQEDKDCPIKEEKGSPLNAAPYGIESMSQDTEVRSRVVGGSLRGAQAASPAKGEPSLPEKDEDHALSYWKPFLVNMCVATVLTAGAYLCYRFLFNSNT
Protocol: Example III-2: Mobility Shift Assay (MSA) Used to Determine Potency of PTPN1 Inhibitors
Compound activity was determined using in house His tagged full-length PTPN1 protein (SEQ ID NO: 3) in an in vitro enzymatic reaction. The enzymatic assay used to determine activity is a mobility shift assay using a LabChip EZ Reader by Caliper Life Sciences. The enzymatic reaction was carried out in assay buffer (50 mM HEPES pH 7.5, 1 mM EGTA, 10 mM EDTA, 0.01% Tween® 20, and 2 mM DTT). The compounds were dispensed on a white 384 well ProxiPlate™ (PerkinElmer Cat ^#6008289) plate using a Labcyte Echo® liquid handler at varying concentrations (12 point, 1:3 dilution). The enzyme (at 0.5 nM) was incubated with compound for 10 minutes at room temperature. Thereafter, the substrate (phosphorylated insulin receptor probe sequence: ((OG488)-(NH—CH2—CH2—O—CH2—CH2—O—CH2—CO)-T-R-D-I—(PY)-E-T-D-Y—Y—R—K—K—NH2) (SEQ ID NO: 2) was added at 2 μM to the plates and incubated for another 10 minutes at room temperature. Finally, a quench solution (water and 4-bromo-3-(2-oxo-2-propoxyethoxy)-5-(3-{[1-(phenylmethanesulfonyl)piperidin-4-yl]amino}phenyl)thiophene-2-carboxylic acid) was added to the plates, which were then run on the EZ Reader (excitation 488 nm, emission 530 nm) to measure % conversion (the amount of phosphorylated substrate which was de-phosphorylated by PTPN1). […] The % inhibition was then used to calculate the IC50 values.

[3] = tested on: IFNγ-induced STAT1 phosphorylation (pSTAT1) in B16F10 cells; test: B16F10 Phospho-STAT1 HTRF proximal pharmacodynamic (PD) assay; format: cell-based, murine; conditions: for EC50: B16-F10, B16F10 cells; for Dihydrobenzofuran or Indoline x-fold>potency cellular: x-fold versus corresponding chromane comparator, B16F10 pSTAT1
Protocol: Example III-3: B16F10 (Murine Melanoma Cells) Phospho-STAT1 HTRF Proximal Pharmacodynamic (PD) Assay
B16F10 cells were grown and maintained in high glucose DMEM (Gibco, Catalog^#11965-092, Dun Laoghaire Co Dublin) supplemented with 10% fetal bovine serum (Gibco, Catalog^#10082-139, Dun Laoghaire Co Dublin). The cells were pelleted and resuspended in high glucose DMEM without phenol red (Gibco, Catalog^#11054-020, Dun Laoghaire Co Dublin), supplemented with 10% fetal bovine serum and plated in a 384 well Corning plate (product^#3765, Corning, NY) at 11,000 cells per well in a volume of 20 μL. The cells were dosed with the compounds of interest using an Echo Liquid Handler (Beckman Coulter, Brea, CA) at 50 μM top dose with 3-fold dilutions down to 0.002679 μM for a 10-point dose response. The plate was incubated for 3 hours at 37° C. and subsequently treated with recombinant mouse IFNγ (R&D Systems, Catalog^#485-MI, Minneapolis, MN; 100 nM final concentration) for 10 minutes at 37° C. to induce STAT1 phosphorylation followed by 3.3 μM staurosporine treatment for 1 hour at 37° C. to terminate phosphorylation. Media was then aspirated and 20 μL of 1× lysis buffer/blocking reagent (Cisbio Phospho-STAT1 kit, part^# 63ADK026PEH, Bedford, MA) was added. The plate was placed on a plate shaker for 30 minutes at room temperature, sealed, and stored at −80° C. until needed. To thaw, the plate was placed on shaker at room temperature until completely thawed while the antibody master mix was made (1:40 Phospho-STAT1 Eu Cryptate antibody, 1:40 Phospho-STAT d2 antibody, with the detection buffer; Cisbio Phospho-STAT1 kit, part^#63ADK026PEH, Bedford, MA). The antibody master mix was then dispensed at 4 μL per well into a 384 ProxiPlate Plus (PerkinElmer, part^#6008289, Waltham, MA) and 16 μL of lysate was added from the Corning plate to the Proxiplate using a VIAFLO 384 (INTEGRA). The plate was incubated for 3 hours at room temperature and read on an EnVision® (Perkin Elmer) plate reader with laser excitation at 335 nm and emission at 665 nm. Dotmatics Studies (Bishop's Stortford, UK) was utilized to generate all dose-response curves and calculate EC50s and are shown in Table 2.

[4] = Table 3, dihydrobenzofuran or indoline compound (X = O or NH)
[5] = 3 hours compound, 100 nM mouse IFNγ 10 minutes, read-out: B16F10 IFNγ Induced pSTAT1 EC50
[6] = Mus musculus, Table 3, dihydrobenzofuran or indoline compound (X = O or NH), read-out: pSTAT1 EC50

Sequence of His tagged PTPN2 (TC45) protein (P17706 other isoform, or with tags, fused parts or gaps): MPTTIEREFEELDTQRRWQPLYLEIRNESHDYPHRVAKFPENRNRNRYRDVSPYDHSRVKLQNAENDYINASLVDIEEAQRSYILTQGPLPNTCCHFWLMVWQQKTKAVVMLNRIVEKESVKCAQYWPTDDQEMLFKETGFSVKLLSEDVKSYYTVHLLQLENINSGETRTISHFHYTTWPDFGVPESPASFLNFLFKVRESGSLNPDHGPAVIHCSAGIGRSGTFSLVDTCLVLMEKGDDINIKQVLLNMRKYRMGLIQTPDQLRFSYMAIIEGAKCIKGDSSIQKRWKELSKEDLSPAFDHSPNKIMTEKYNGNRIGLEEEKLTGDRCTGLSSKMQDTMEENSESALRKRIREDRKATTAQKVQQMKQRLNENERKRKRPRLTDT

| IC50 [2] [nM] | EC50 [3, 5] [nM] | EC50 [3, 6] [nM] | Compound | IC50 [1, 4] [nM] | IC50 ([1]; enzyme 0.5 nM, substrate 2 μM) [nM] | Dihydrobenzofuran or Indoline x-fold>potency biochemical [1] | Dihydrobenzofuran or Indoline x-fold>potency cellular [3] |
| --- | --- | --- | --- | --- | --- | --- | --- |
| 10 to 100 | 3090 | 3090 | O=C1CN(c2c(O)cc3c(c2F)C[C@H](CNCCC2CCOCC2)O3)S(=O)(=O)N1 [Compound 125, 5-[(2R)-4-fluoro-6-hydroxy-2-({[2-(oxan-4-yl)ethyl]amino}methyl)-2,3-dihydro-1-benzofuran-5-yl]-1λ^6,2,5-thiadiazolidine-1,1,3-trione] | 8.32 | < 10 | 2.2 | 10.4 |
| 10 to 100 | > 50000 | > 50000 | CC1=C(CCNC[C@H]2Cc3c(cc(O)c(N4CC(=O)NS4(=O)=O)c3F)O2)C(C)(C)CCC1 [Compound 128, 5-[(2R)-4-fluoro-6-hydroxy-2-({[2-(2,6,6-trimethylcyclohex-1-en-1-yl)ethyl]amino}methyl)-2,3-dihydro-1-benzofuran-5-yl]-1λ^6,2,5-thiadiazolidine-1,1,3-trione] | 1.81 | < 10 | 12.5 | ~1.0 |
| 10 to 100 | 22100 | 22100 | O=C1CN(c2c(O)cc3c(c2F)C[C@H](CNCC2(CF)CC2)O3)S(=O)(=O)N1 [Compound 131, 5-{(2R)-4-fluoro-2-[({[1-(fluoromethyl)cyclopropyl]methyl}amino)methyl]-6-hydroxy-2,3-dihydro-1-benzofuran-5-yl}-1λ^6,2,5-thiadiazolidine-1,1,3-trione] | 20.9 | 10 to 100 | 2.4 | >2.3 |

More lines, now with the values behind:

| Compound | IC50 [2] [nM] | EC50 [3, 5] [nM] | EC50 [3, 6] [nM] | IC50 [1, 4] [nM] | IC50 ([1]; enzyme 0.5 nM, substrate 2 μM) [nM] | Dihydrobenzofuran or Indoline x-fold>potency biochemical [1] | Dihydrobenzofuran or Indoline x-fold>potency cellular [3] |
| --- | --- | --- | --- | --- | --- | --- | --- |
| O=C1CN(c2c(O)cc3c(c2F)C[C@H](CNCCCc2ccccc2)O3)S(=O)(=O)N1 [Compound 127, 5-[(2R)-4-fluoro-6-hydroxy-2-{[(3-phenylpropyl)amino]methyl}-2,3-dihydro-1-benzofuran-5-yl]-1λ^6,2,5-thiadiazolidine-1,1,3-trione] | 10 to 100 | 10800 | 10800 | 4.05 | < 10 | 4.7 | >4.6 |
| O=C1CN(c2c(O)cc3c(c2F)C[C@H](CNCC2CC(c4ccccc4)C2)O3)S(=O)(=O)N1 (stereo partly drawn) [Compound 129, 5-[(2R)-4-fluoro-6-hydroxy-2-({[(3-phenylcyclobutyl)methyl]amino}methyl)-2,3-dihydro-1-benzofuran-5-yl]-1λ^6,2,5-thiadiazolidine-1,1,3-trione] | 10 to 100 | 1290 | 1290 | 2.51 | < 10 | 3.3 | >38.8 |
| O=C1CN(c2c(O)cc3c(c2F)C[C@H](CNCC2CCC(C(F)(F)F)CC2)O3)S(=O)(=O)N1 (stereo partly drawn) [Compound 130, 5-{(2R)-4-fluoro-6-hydroxy-2-[({[4-(trifluoromethyl)cyclohexyl]methyl}amino)methyl]-2,3-dihydro-1-benzofuran-5-yl}-1λ^6,2,5-thiadiazolidine-1,1,3-trione] | 10 to 100 | > 50000 | > 50000 | 4.38 | < 10 | 6.1 | ~1.0 |
| CC(C)CNC[C@@H]1Cc2c(cc(O)c(N3CC(=O)NS3(=O)=O)c2F)N1 [Compound 132, 5-[(2S)-4-fluoro-6-hydroxy-2-{[(2-methylpropyl)amino]methyl}-2,3-dihydro-1H-indol-5-yl]-1λ^6,2,5-thiadiazolidine-1,1,3-trione] | > 100 | 4690 |  |  | 10 to 100 |  |  |
| CC(C)CNC[C@H]1Cc2c(cc(O)c(N3CC(=O)NS3(=O)=O)c2F)N1 [Compound 133, 5-[(2R)-4-fluoro-6-hydroxy-2-{[(2-methylpropyl)amino]methyl}-2,3-dihydro-1H-indol-5-yl]-1λ^6,2,5-thiadiazolidine-1,1,3-trione] | 10 to 100 | 1240 |  |  | 10 to 100 |  |  |

— patent US20250019374A1, “PROTEIN TYROSINE PHOSPHATASE INHIBITORS AND METHODS OF USE THEREOF” (Calico Life Sciences LLC, priority 2021, published 2025)
